# According to the METLIN SMRT retention time set (Domingo-Almenara et al. 2019):
# Test: gradient 5% acetonitrile 3 min, to 50% in 2 min, to 85% in 15 min, held 3 min, 100 µL/min
# Conditions: column: Zorbax Extend-C18 2.1 x 50 mm; eluents: water / acetonitrile, 0.1% formic acid
# How it was run: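 Data were gathered over 3 months by HPLC coupled to a quadrupole time-of-flight mass spectrometer, operated in positive and negative ionization mode. Mixtures of ~100 pure standards ran on a Zorbax Extend-C18 column (2.1 × 50 mm, 1.8 μm) at 100 μL/min, with water and acetonitrile each containing 0.1% formic acid and dead and dwell volumes of 40 μL and 900 μL. Retention time was read from adduct peaks picked by computer and checked manually.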
row,Structure (SMILES),RP-LC retention time [s]
1,Cc1nc2c(NC(=O)COc3ccccc3C)cccn2n1,916
2,CCc1nc2cc(N3CCC(C(=O)NC(C)C)CC3)cnc2nc1CC,704
3,Cc1ccc(CN2CCN(C3CCN(S(=O)(=O)c4ccc(C)c(Cl)c4)CC3)C(=O)C2=O)cc1,990
4,Cc1ccc(CNC(=O)C2CCN(c3cn[nH]c(=O)c3)CC2)cc1,644
5,CCc1nc2cccnc2n1-c1ccc(C(=O)NC)cc1,659
6,CCC(=O)Oc1ccc(N(C)C2=NS(=O)(=O)c3ccccc32)cc1,859
7,CC(=O)Nc1ccc(NC(=O)C2CC(=O)N(CCc3c[nH]c4ccc(Cl)cc34)C2)cc1 (stereo not drawn),679
8,CCc1cccc(NC(=O)N2CCCC2c2nncn2C2CCCC2)c1 (stereo not drawn),742
9,COc1ccc(OC)c(NC(=O)C2=Cc3cc(Br)ccc3OC2)c1,1150
10,CCn1c(C(=O)NCCCN2CCCCC2)c(N2CCCC2=O)c2cc(F)ccc21,647
11,O=C(CCC(=O)N1Cc2cccn2-c2ccccc21)NCc1cccc(Cl)c1,957
12,CCSc1nc2ccc(NS(=O)(=O)c3ccc4c(c3)CCC4)cc2s1,1110
13,O=C(N1c2ccccc2CC1c1nnc(C2CCOCC2)o1)C1(c2ccccc2)CC1 (stereo not drawn),841
14,CN(C)c1cc(N2CCCC(NC(=O)Cc3cccs3)C2)ncn1 (stereo not drawn),596
15,COc1c(C(=O)NCc2cc(F)cc(F)c2)sc2ccc(F)cc12,1070
16,O=[N+]([O-])c1cccc(-c2nnc(-c3ccccc3)o2)c1,887
17,COc1ccc(-c2cc(OC)c3cc(NC(=O)c4cccs4)ccc3n2)cc1,726
18,Cc1cccc(N2CCN(C(=O)C3CCN(c4cncnc4N(C)C)CC3)CC2)c1C,756
19,O=C(Nc1ccc2c(c1)OCO2)C1(c2ccc(F)cc2)CC1,877
20,CCOC(=O)c1ccc(NC(=O)COc2ccc(-c3nnc4n3CCCC4)cc2)cc1,730
21,O=C(c1cc(-c2cccs2)[nH]n1)N1CCN(c2ccccn2)CC1,596
22,COc1cccc(S(=O)(=O)N2CCc3nc(-c4ccccc4)ncc3C2)c1,1050
23,O=C(Nc1ccc2ccccc2c1)c1ccc(Cl)cc1Cl,1130

row,Structure (SMILES),RP-LC retention time [s]
1,O=C(NCCOc1cccc2cccnc12)c1cnn(-c2ccccc2)n1,623
2,Cn1cc(CN2CCC(C(=O)NC3CCCCCC3)CC2)c2cc(Cl)ccc21,751
3,CN(C)CCn1cc(C(=O)NCc2cccs2)ccc1=O,578
4,COc1ccccc1N1CCN(S(=O)(=O)c2cc(-c3cc(C(F)(F)F)on3)cs2)CC1,1200
5,COc1ccc(-c2nnc(-c3ccccc3)o2)cc1S(=O)(=O)N1CCCC1,908
6,CN(C)S(=O)(=O)N1CCCC1Cc1noc(-c2cccnc2)n1 (stereo not drawn),746
7,Cc1c2c(nn1-c1ccc(SCc3cccc(F)c3)nn1)CCC2,1280
8,O=C(Nc1cc(-c2cccs2)no1)C1(c2ccccc2)CC1,1050
9,Cc1nc2c(ccc3nc(NC(=O)c4ccc5c(c4)OCCO5)sc32)s1,858
10,CCn1c(=O)c2c(cc(C)n2C)n(CC(=O)Nc2ccc(OC)c(Cl)c2)c1=O,794
11,CSc1ccc(-c2nc3cccc(C)n3c2Nc2ccccc2C)cc1,808
12,O=C(Cc1csc2nc(-c3cccc(Br)c3)cn12)NCCC1=CCCCC1,1050
13,CC1=C(C(=O)N(CC(=O)NCc2ccc(C)cc2)c2ccc(Cl)cc2)SCCO1,1010
14,O=c1[nH]cc(S(=O)(=O)NC2CC3CCC2C3)c(=O)[nH]1 (stereo not drawn),637
15,CC(C)CCNS(=O)(=O)c1ccccc1-c1nc(-c2ccccc2)no1,1240
16,C=CCn1ccc2c(OCC(=O)Nc3ccc4c(c3)OCO4)cccc2c1=O,805
17,Cc1cccc2c(C(=O)N(C)C)cc(=O)[nH]c12,597
18,CCCNC(=O)N(C1CCOCC1)C1CCN(S(=O)(=O)c2cc(F)ccc2C)CC1,897
19,CCCC(C)C(=O)N1CC2CN(S(=O)(=O)c3ccccc3)CC(C1)O2 (stereo not drawn),807
20,Cc1ccc(CNC(=O)C2(C)CCCN(C(=O)Nc3ccccc3Cl)C2)cc1 (stereo not drawn),995
21,CC1=C(c2ccc(C)cc2)S(=O)(=O)N=C1N1CCCN(C(=O)c2ccsc2)CC1,821
22,CC1(C)CC2CC(C)(CN2c2nc(-c3ccccc3)nc3ccccc23)C1 (stereo not drawn),948
23,O=C1CCc2cc(S(=O)(=O)N3CCN(c4ccc(F)cc4)CC3)cc3c2N1CCC3,966

row,Structure (SMILES),RP-LC retention time [s]
1,Cc1ccc(-c2ncc(C(=O)Nc3cc(F)ccc3F)c(-c3ccncc3)n2)cc1,988
2,COc1ccc(OCc2nc(-c3ccc4nnn(C)c4c3)no2)cc1,916
3,O=C(Cn1cccc(-c2nc(-c3ccc(Cl)cc3)no2)c1=O)NC1CCCC1,881
4,COc1nn(C)cc1C(=O)Nc1cc(C(F)(F)F)ccc1Cl,980
5,COc1cccc(N2CCN(C(=O)Cn3ccc4c(SCc5ccc(F)cc5)nccc43)CC2)c1,795
6,Cn1nc2n(c1=O)CCN(C(=O)Cc1cccs1)CC2,610
7,CCCC(=O)Nc1sccc1C(N)=O,625
8,O=C(NC1CCN(c2cc(-c3ccc(Cl)cc3)[nH]n2)C1)c1ccc2[nH]ccc2c1 (stereo not drawn),742
9,O=C(NCc1cc(F)cc(F)c1)C1CCN(c2cnc(N3CCCC3)nc2)CC1,674
10,NC(=O)c1ccc2c(c1)CCN2C(=O)C1CCCC1,698
11,COc1ccccc1C(=O)NC1(C(F)(F)F)C(=O)N(CC2CCCO2)C(C)=C1C(C)=O (stereo not drawn),774
12,CNS(=O)(=O)c1cccnc1Nc1cc(C)cc(C)c1,990
13,Cn1ncc2c3ccccc3n(CC(=O)NCCCN3CCCC3)c2c1=O,592
14,CC(C)NC(=O)c1ccc(OCC2CCN(C(=O)CC(C)(C)C)CC2)cc1,875
15,CN1CCCn2nc(C3CCN(S(=O)(=O)c4ccc5c(c4)OCCO5)CC3)cc2C1=O,718
16,CCOC(=O)C1CCN(C(=O)c2nnc(-c3ccc(S(=O)(=O)N4CCOCC4)cc3)o2)CC1,826
17,Cc1c(CN2CCC(N(C(=O)NCCc3ccccc3)C3CCOCC3)CC2)cnn1C,627
18,O=C(NCc1ccco1)c1cccc(Nc2c(-c3ccc(Cl)cc3)nc3cnccn23)c1,826
19,COc1cc(NC(=O)c2cc(C(C)C)n3nccc3n2)cc(OC)c1OC,915
20,O=C(Nc1cccc(F)c1)N1CCC(CCNC(=O)C2(c3ccccc3)CC2)CC1,883
21,COc1ccc2[nH]cc(CCN3CC(C(=O)Nc4ccc(C)cc4C)CC3=O)c2c1 (stereo not drawn),775
22,COc1ccc(-c2noc(-c3ccc(NCCN(C)C)nn3)n2)cc1,630
